In patent US10077261B2, “Imidazolin-5-one derivative useful as FASN inhibitors for the treatment of cancer” (Janssen Pharmaceutica NV, priority 2012, dated 2018):

Tests used:
[1] = tested on: LNCaP-Vancouver prostate cells; assay: In vitro LNCaP Vancouver prostate cell proliferation assay in lipid reduced medium; assay type: cell-based; settings: read-out: pIC50 LNCaP_Vancouver prostate cell (converted)
[2] = molecular target: T1, hFASN enzyme (full length) (Homo sapiens, UniProt P49327); assay: Fatty Acid Synthase (FASN) inhibition scintillation proximity assay; assay type: biochemical; settings: for inhibition at 10 µM: read-out: Human FASN % inhibition @ 10 μM, 10 μM test compound; for IC50: read-out: Human FASN pIC50 (converted)
T1 construct: 10 μL hFASN enzyme (full length, 300 ng, purified in house); made in house
T1 sequence (P49327 whole entry): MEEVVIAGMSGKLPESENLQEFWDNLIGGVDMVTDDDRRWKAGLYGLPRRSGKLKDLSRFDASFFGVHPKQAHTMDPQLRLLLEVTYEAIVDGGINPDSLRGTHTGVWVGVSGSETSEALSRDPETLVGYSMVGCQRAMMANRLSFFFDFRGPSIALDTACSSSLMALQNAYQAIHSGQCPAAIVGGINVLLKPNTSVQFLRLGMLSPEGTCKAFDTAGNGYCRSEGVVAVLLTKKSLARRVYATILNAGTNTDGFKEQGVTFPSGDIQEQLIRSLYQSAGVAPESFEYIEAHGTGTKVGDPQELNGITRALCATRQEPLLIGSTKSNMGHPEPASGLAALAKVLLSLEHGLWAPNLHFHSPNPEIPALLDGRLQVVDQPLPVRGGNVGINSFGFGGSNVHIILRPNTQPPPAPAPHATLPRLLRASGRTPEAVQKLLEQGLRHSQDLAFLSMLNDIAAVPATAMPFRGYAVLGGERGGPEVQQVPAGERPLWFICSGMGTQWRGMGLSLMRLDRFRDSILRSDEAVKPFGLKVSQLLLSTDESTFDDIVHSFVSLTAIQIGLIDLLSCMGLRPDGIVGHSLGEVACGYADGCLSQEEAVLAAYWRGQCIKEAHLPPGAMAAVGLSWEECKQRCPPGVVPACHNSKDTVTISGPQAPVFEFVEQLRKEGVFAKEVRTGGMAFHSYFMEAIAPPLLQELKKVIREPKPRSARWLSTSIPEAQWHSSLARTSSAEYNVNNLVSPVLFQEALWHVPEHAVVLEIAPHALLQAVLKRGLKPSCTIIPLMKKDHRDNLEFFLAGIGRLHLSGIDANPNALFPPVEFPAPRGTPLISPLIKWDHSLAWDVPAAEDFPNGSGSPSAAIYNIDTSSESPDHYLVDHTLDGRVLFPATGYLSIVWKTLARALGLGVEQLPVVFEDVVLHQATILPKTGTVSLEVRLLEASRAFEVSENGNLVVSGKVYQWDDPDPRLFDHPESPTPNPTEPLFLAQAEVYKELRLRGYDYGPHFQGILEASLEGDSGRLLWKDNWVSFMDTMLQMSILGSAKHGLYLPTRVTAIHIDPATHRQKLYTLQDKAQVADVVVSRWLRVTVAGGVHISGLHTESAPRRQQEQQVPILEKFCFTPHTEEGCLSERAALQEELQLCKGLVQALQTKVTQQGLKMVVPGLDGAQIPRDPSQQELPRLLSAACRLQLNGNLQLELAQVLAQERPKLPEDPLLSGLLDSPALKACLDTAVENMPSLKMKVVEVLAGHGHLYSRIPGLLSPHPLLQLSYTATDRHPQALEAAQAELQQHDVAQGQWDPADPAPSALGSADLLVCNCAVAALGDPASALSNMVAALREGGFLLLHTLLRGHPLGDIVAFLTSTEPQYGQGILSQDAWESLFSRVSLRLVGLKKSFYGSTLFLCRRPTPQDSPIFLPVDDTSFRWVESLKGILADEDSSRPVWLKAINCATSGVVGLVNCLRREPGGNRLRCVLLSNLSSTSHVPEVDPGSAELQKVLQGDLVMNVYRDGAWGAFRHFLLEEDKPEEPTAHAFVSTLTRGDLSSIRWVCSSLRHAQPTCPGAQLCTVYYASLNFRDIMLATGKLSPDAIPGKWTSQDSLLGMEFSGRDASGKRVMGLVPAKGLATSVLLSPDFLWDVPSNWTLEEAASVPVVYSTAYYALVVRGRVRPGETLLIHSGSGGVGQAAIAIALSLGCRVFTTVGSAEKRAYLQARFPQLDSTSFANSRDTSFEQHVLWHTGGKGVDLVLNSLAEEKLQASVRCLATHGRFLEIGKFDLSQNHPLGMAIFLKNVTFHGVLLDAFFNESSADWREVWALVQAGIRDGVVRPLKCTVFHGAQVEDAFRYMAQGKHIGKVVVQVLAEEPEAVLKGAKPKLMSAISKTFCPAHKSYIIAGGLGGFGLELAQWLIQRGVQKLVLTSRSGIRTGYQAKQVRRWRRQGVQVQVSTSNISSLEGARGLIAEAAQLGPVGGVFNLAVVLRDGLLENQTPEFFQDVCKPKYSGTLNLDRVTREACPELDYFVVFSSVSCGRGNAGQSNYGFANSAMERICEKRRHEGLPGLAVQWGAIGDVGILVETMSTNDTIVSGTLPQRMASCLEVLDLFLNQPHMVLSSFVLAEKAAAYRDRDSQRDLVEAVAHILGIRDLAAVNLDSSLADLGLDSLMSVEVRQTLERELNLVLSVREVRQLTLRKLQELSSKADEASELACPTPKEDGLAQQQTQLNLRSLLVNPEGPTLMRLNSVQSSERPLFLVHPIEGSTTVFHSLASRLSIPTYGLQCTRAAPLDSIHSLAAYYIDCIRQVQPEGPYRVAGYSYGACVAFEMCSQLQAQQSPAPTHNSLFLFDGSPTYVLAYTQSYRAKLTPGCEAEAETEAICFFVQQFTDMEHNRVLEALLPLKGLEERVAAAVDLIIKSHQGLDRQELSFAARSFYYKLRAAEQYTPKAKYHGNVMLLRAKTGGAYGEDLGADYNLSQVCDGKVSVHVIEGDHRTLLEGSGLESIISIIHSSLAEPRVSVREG
Method in brief: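 Read-out relies on hydrophobic ³H-palmitate product, formed from ³H-acetyl-CoA and malonyl-CoA, binding streptavidin imaging beads, measured at 610±20 nm after at least 24 h. Full-length enzyme (300 ng) in phosphate buffer pH 7.5 with DTT; eight compound concentrations, 0.01–30 μM.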

[3] = molecular target: Fatty Acid Synthase Keto-reductase Domain (FASN KR) (Homo sapiens, UniProt P49327); assay: Fatty Acid Synthase keto-reductase domain (FASN KR) inhibition, NADPH oxidation at 340 nm
Sequence of Fatty Acid Synthase Keto-reductase Domain (FASN KR) (P49327 whole entry, the tested form may be a part): as the sequence (P49327 whole entry) above
Method: After 20 minutes incubation at room temperature the plate was measured again (T2).
The decrease in absorbance was calculated as (Absorbance before incubation T1)−(Absorbance following incubation T2).
A plot of Controlmin versus test compound concentration was fitted to a 4-parameter logistic curve using a non-linear least squares regression method.

[4] = tested on: A2780 ovarian cells; assay: A2780 ovarian cell proliferation assay in lipid reduced medium, with palmitate (MTT); assay type: cell-based; settings: Homo sapiens, A2780, 96 h; read-out: pIC50 A2780 Ovarian Cell, With Palmitate (converted)
Method in brief: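 In this palmitate-supplemented format, compound dilutions (30 μM down to 0.01 μM) are added to cells in lipid-reduced serum with 25 μM palmitate, 0.2% fatty-acid-free BSA and 0.25% ethanol. After four days (96 h) MTT absorbance at 544 nm is recorded and fitted by minimum sum of squares.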

[5] = tested on: A2780 ovarian cells; assay: A2780 ovarian cell proliferation assay in lipid reduced medium, without palmitate (MTT); assay type: cell-based; settings: Homo sapiens, A2780, 96 h; read-out: pIC50 A2780 Ovarian Cell, Without Palmitate (converted)
[6] = tested on: PC-3M-Luc-C6 prostate cells; assay: In vitro PC-3M-Luc-C6 prostate cell proliferation assay in lipid reduced medium; assay type: cell-based; settings: 96 h, read-out: pIC50 PC-3M-Luc-C6 prostate cell (converted)

Cc1cc(-c2ccc3oc(C)c(C)c3c2)ccc1C1=NC2(CC2)C(=O)N1C[C@@H]1CCN(C(=O)C2CC2)C1 [compound 282, (R)-6-((1-(cyclopropanecarbonyl)pyrrolidin-3-yl)methyl)-5-(4-(2,3-dimethylbenzofuran-5-yl)-2-methylphenyl)-4,6-diazaspiro[2.4]hept-4-en-7-one]
IC50 [1]: ~2140 nM | inhibition at 10 µM [2]: 106% | IC50 [2]: 87.1 nM | IC50 [3]: 224 nM | IC50 [4]: > 10000 nM | IC50 [5]: ~2090 nM | IC50 [6]: ~1700 nM

Cc1cc(-c2ccc3cc[nH]c3c2)ccc1C1=NC2(CC2)C(=O)N1CC1CN(C(=O)C2CC2)C1 [compound 303, 5-(4-(1H-indol-6-yl)-2-methylphenyl)-6-((1-(cyclopropancarbonyl)azetidin-3-yl)methyl)-4,6-diazaspiro[2.4]hept-4-en-7-one]
IC50 [1]: ~912 nM | inhibition at 10 µM [2]: 102% | IC50 [2]: 30.9 nM | IC50 [3]: 69.2 nM | IC50 [4]: > 6170 nM | IC50 [5]: 28.8 nM | IC50 [6]: 39.8 nM

Cn1ccc2cc(-c3ccc(C4=NC5(CC5)C(=O)N4C[C@@H]4CCN(C(=O)C5CC5)C4)cc3)ccc21 [compound 215, (R)-6-((1-(cyclopropanecarbonyl)pyrrolidin-3-yl)methyl)-5-(4-(1-methyl-1H-indol-5-yl)phenyl)-4,6-diazaspiro[2.4]hept-4-en-7-one]
IC50 [1]: 70.8 nM | inhibition at 10 µM [2]: 102% | IC50 [2]: 23.4 nM | IC50 [3]: 24.5 nM | IC50 [4]: > 10000 nM | IC50 [5]: 20.4 nM | IC50 [6]: 15.8 nM

Cc1cc(-c2ccc3cc(C#N)ccc3c2)ccc1C1=NC2(CC2)C(=O)N1CC1CN(C(=O)C2CCO2)C1 (centres unmarked) [compound 224, 6-(3-methyl-4-(6-((1-(oxetane-2-carbonyl)azetidin-3-yl)methyl)-7-oxo-4,6-diazaspiro[2.4]hept-4-en-5-yl)phenyl)-2-naphthonitrile]
IC50 [1]: 56.2 nM | inhibition at 10 µM [2]: 103% | IC50 [2]: 25.1 nM | IC50 [3]: 77.6 nM | IC50 [4]: ~10000 nM | IC50 [5]: 7.76 nM | IC50 [6]: 12.6 nM

Cn1cc(-c2ccc(-c3ccc(C4=NC5(CC5)C(=O)N4CC4CN(C(=O)C5(C)CC5)C4)c(F)c3)cc2)cn1 [compound 358, 5-(3-fluoro-4′-(1-methyl-1H-pyrazol-4-yl)-[1,1′-biphenyl]-4-yl)-6-((1-(1-methylcyclopropanecarbonyl)azetidin-3-yl)methyl)-4,6-diazaspiro[2.4]hept-4-en-7-one]
IC50 [1]: 77.6 nM | inhibition at 10 µM [2]: 100% | IC50 [2]: 30.9 nM | IC50 [3]: 51.3 nM | IC50 [4]: > 10000 nM | IC50 [5]: 3.16 nM | IC50 [6]: 14.8 nM

Cn1nc(Cl)c2cc(-c3ccc(C4=NC5(CC5)C(=O)N4CC4CN(C(=O)C5CC5)C4)c(F)c3)ccc21 [compound 607, 5-[4-(3-Chloro-1-methyl-1H-indazol-5-yl)-2-fluorophenyl]-6-{[1-(cyclopropylcarbonyl)azetidin-3-yl]methyl}-4,6-diazaspiro[2.4]hept-4-en-7-one]
IC50 [1]: 1100 nM | inhibition at 10 µM [2]: 102% | IC50 [2]: 158 nM | IC50 [3]: 537 nM | IC50 [4]: > 10000 nM | IC50 [5]: 646 nM | IC50 [6]: 178 nM

Cn1cnc2cc(-c3ccc(C4=NC5(CC5)C(=O)N4CC4CN(C(=O)C5(O)CC5)C4)c(F)c3)ccc21 [compound 377, 5-(2-fluoro-4-(1-methyl-1H-benzo[d]imidazol-5-yl)phenyl)-6-((1-(1-hydroxycyclopropanecarbonyl)azetidin-3-yl)methyl)-4,6-diazaspiro[2.4]hept-4-en-7-one]
IC50 [1]: 81.3 nM | inhibition at 10 µM [2]: 100% | IC50 [2]: 35.5 nM | IC50 [3]: ~36.3 nM | IC50 [4]: > 10000 nM | IC50 [5]: 22.9 nM | IC50 [6]: 28.2 nM

O=C(N1CCCC1)N1CC[C@@H](CN2C(=O)C3(CCOCC3)N=C2c2ccc(-c3ccc4cccnc4c3)cc2)C1 [compound 665, 3-{[(3S)-1-(Pyrrolidin-1-ylcarbonyl)pyrrolidin-3-yl]methyl}-2-(4-quinolin-7-ylphenyl)-8-oxa-1,3-diazaspiro[4.5]dec-1-en-4-one]
IC50 [1]: 1230 nM | inhibition at 10 µM [2]: 94% | IC50 [2]: 324 nM | IC50 [3]: 631 nM | IC50 [4]: > 10000 nM | IC50 [5]: 550 nM | IC50 [6]: 794 nM

O=C(C1CC1)N1CC[C@@H](CN2C(=O)C3(CC3)N=C2c2ccc(-c3ccc4sccc4c3)s2)C1 [compound 425, 5-[5-(1-Benzothiophen-5-yl)thiophen-2-yl]-6-{[(3R)-1-(cyclopropylcarbonyl)pyrrolidin-3-yl]methyl}-4,6-diazaspiro[2.4]hept-4-en-7-one]
IC50 [1]: 3160 nM | inhibition at 10 µM [2]: 93% | IC50 [2]: 275 nM | IC50 [3]: 646 nM | IC50 [4]: > 10000 nM | IC50 [5]: ~6920 nM | IC50 [6]: 2190 nM

Cc1ccc2nc(-c3ccc(C4=NC5(CC5)C(=O)N4CC4CN(C(=O)C5CC5)C4)c(F)c3)sc2c1 [compound 270, 6-((1-(cyclopropanecarbonyl)azetidin-3-yl)methyl)-5-(2-fluoro-4-(6-methylbenzo[d]thiazol-2-yl)phenyl)-4,6-diazaspiro[2.4]hept-4-en-7-one]
IC50 [1]: 195 nM | inhibition at 10 µM [2]: 102% | IC50 [2]: 35.5 nM | IC50 [3]: 166 nM | IC50 [4]: ~5500 nM | IC50 [5]: ~27.5 nM | IC50 [6]: 34.7 nM

COCCN1CCC2(CC1)N=C(c1ccc(-c3ccc4c(cnn4C)c3)cc1)N(C[C@@H]1CCN(C(=O)C3CC3)C1)C2=O [compound 750, 3-{[(3R)-1-(Cyclopropylcarbonyl)pyrrolidin-3-yl]methyl}-8-(2-methoxyethyl)-2-[4-(1-methyl-1H-indazol-5-yl)phenyl]-1,3,8-triazaspiro[4.5]dec-1-en-4-one]
IC50 [1]: 3160 nM | inhibition at 10 µM [2]: 94% | IC50 [2]: 309 nM | IC50 [3]: 1150 nM | IC50 [4]: > 10000 nM | IC50 [5]: 676 nM | IC50 [6]: 589 nM

O=C(C1CC1)N1CC[C@@H](CN2C(=O)C3(CC3)N=C2c2ccc(-c3ccc4sccc4c3)cn2)C1 [compound 342, (R)-5-(5-(benzo[b]thiophen-5-yl)pyridin-2-yl)-6-((1-(cyclopropanecarbonyl)pyrrolidin-3-yl)methyl)-4,6-diazaspiro[2.4]hept-4-en-7-one]
IC50 [1]: 1620 nM | inhibition at 10 µM [2]: 106% | IC50 [2]: 69.2 nM | IC50 [3]: 195 nM | IC50 [4]: > 10000 nM | IC50 [5]: 1860 nM | IC50 [6]: ~891 nM

O=C1Cc2cc(-c3ccc(C4=NC5(CC5)C(=O)N4C[C@@H]4CCN(C(=O)C5CC5)C4)cc3)ccc2N1 [compound 457, 5-[4-(6-{[(3R)-1-(Cyclopropylcarbonyl)pyrrolidin-3-yl]methyl}-7-oxo-4,6-diazaspiro[2.4]hept-4-en-5-yl)phenyl]-1,3-dihydro-2H-indol-2-one]
IC50 [1]: > 3020 nM | inhibition at 10 µM [2]: 91% | IC50 [2]: 457 nM | IC50 [3]: 1450 nM | IC50 [4]: > 6170 nM | IC50 [5]: 1260 nM | IC50 [6]: 2190 nM

O=C(C1CC1)N1CC(CN2C(=O)C3(CC3)N=C2c2ccc(-c3ccc4cc[nH]c4c3)cc2)C1 [compound 299, 5-(4-(1H-indol-6-yl)phenyl)-6-((1-(cyclopropanecarbonyl)azetidin-3-yl)methyl)-4,6-diazaspiro[2.4]hept-4-en-7-one]
IC50 [1]: 234 nM | inhibition at 10 µM [2]: 101% | IC50 [2]: 22.9 nM | IC50 [3]: 58.9 nM | IC50 [4]: > 10000 nM | IC50 [5]: 30.9 nM | IC50 [6]: 38.9 nM

O=C1Cc2ccc(-c3ccc(C4=NC5(CC5)C(=O)N4C[C@@H]4CCN(C(=O)C5CC5)C4)cc3)cc2N1 [compound 461, 6-[4-(6-{[(3R)-1-(Cyclopropylcvarbonyl)pyrrolidin-3-yl]methyl}-7-oxo-4,6-diazaspiro[2.4]hept-4-en-5-yl)phenyl]-1,3-dihydro-2H-indol-2-one]
IC50 [1]: ~2510 nM | inhibition at 10 µM [2]: 95% | IC50 [2]: 141 nM | IC50 [3]: 1170 nM | IC50 [4]: > 10000 nM | IC50 [5]: ~427 nM | IC50 [6]: ~603 nM

COc1cccc2ccc(-c3ccc(C4=NC5(CC5)C(=O)N4CC4CN(C(=O)C5CC5)C4)c(F)c3)cc12 [compound 380, 6-((1-(cyclopropanecarbonyl)azetidin-3-yl)methyl)-5-(2-fluoro-4-(8-methoxynaphthalen-2-yl)phenyl)-4,6-diazaspiro[2.4]hept-4-en-7-one]
IC50 [1]: 1150 nM | inhibition at 10 µM [2]: 100% | IC50 [2]: 66.1 nM | IC50 [3]: 95.5 nM | IC50 [4]: > 10000 nM | IC50 [5]: 132 nM | IC50 [6]: 309 nM

O=C(C1CC1)N1CC[C@@H](CN2C(=O)C3(CC3)N=C2c2ccc(-c3ccc4cccnc4c3)cc2F)C1 [compound 249, (R)-6-((1-(cyclopropanecarbonyl)pyrrolidin-3-yl)methyl)-5-(2-fluoro-4-(quinolin-7-yl)phenyl)-4,6-diazaspiro[2.4]hept-4-en-7-one]
IC50 [1]: 16.6 nM | inhibition at 10 µM [2]: 102% | IC50 [2]: 17 nM | IC50 [3]: 19.5 nM | IC50 [4]: > 10000 nM | IC50 [5]: ~5.5 nM | IC50 [6]: 4.17 nM
